Experimental data from PubChem BioAssay AID2060489 (Molecular Pharmacology Branch, DTP, NCI, 2025).

Tested on: 922993-354-T-J3-PDC complex spheroids, viability
Assay: Anticancer human tumor 922993-354-T-J3-PDC patient-derived endometrial carcinoma cell line growth inhibition [GQUAD]
Conditions: for IC50: curve of first compound; for viability, T/C: stronger effect = lower value
How it was run: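 Multi-cell-type spheroids of tumor cells with HUVEC and mesenchymal stem cells, treated with drug combinations. Concentrations descend in half-log steps from near clinical Cmax, or from 10 microM where Cmax is unknown; viability read-out.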

[1] = second compound 0.0316 µM, first compound 0.0316 µM
[2] = second compound 0.0316 µM, first compound 0.1 µM
[3] = second compound 0.0316 µM, first compound 0.316 µM
[4] = second compound 0.0316 µM, first compound 1 µM
[5] = second compound 0.0316 µM, first compound 3.16 µM
[6] = second compound 0.0316 µM, first compound 10 µM
[7] = second compound 0.1 µM, first compound 0.0316 µM
[8] = second compound 0.1 µM, first compound 0.1 µM
[9] = second compound 0.1 µM, first compound 0.316 µM
[10] = second compound 0.1 µM, first compound 1 µM
[11] = second compound 0.1 µM, first compound 3.16 µM
[12] = second compound 0.1 µM, first compound 10 µM
[13] = second compound 0.316 µM, first compound 0.0316 µM
[14] = second compound 0.316 µM, first compound 0.1 µM
[15] = second compound 0.316 µM, first compound 0.316 µM
[16] = second compound 0.316 µM, first compound 1 µM
[17] = second compound 0.316 µM, first compound 3.16 µM
[18] = second compound 0.316 µM, first compound 10 µM
[19] = second compound 1 µM, first compound 0.0316 µM
[20] = second compound 1 µM, first compound 0.1 µM
[21] = second compound 1 µM, first compound 0.316 µM
[22] = second compound 1 µM, first compound 1 µM
[23] = second compound 1 µM, first compound 3.16 µM
[24] = second compound 1 µM, first compound 10 µM
[25] = second compound 3.16 µM, first compound 0.0316 µM
[26] = second compound 3.16 µM, first compound 0.1 µM
[27] = second compound 3.16 µM, first compound 0.316 µM
[28] = second compound 3.16 µM, first compound 1 µM
[29] = second compound 3.16 µM, first compound 3.16 µM
[30] = second compound 3.16 µM, first compound 10 µM
[31] = second compound 10 µM, first compound 0.0316 µM
[32] = second compound 10 µM, first compound 0.1 µM
[33] = second compound 10 µM, first compound 0.316 µM
[34] = second compound 10 µM, first compound 1 µM
[35] = second compound 10 µM, first compound 3.16 µM
[36] = second compound 10 µM, first compound 10 µM
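Further: spheroids exposed to compounds for seven days.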
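Wherever viability, T/C is given: 100% = DMSO vehicle control viability.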

Which results are given for `CC1COCCN1c1cc(C2(S(C)(=N)=O)CC2)nc(-c2ccnc3[nH]ccc23)n1` (centres undefined) + CN(C)c1ccc(Nc2c3ccc(NC(=O)CCN4CCCC4)cc3nc3cc(NC(=O)CCN4CCCC4)ccc23)cc1?
IC50 (second compound 0.0316 µM): > 10 µM; IC50 (second compound 0.1 µM): > 10 µM; IC50 (second compound 0.316 µM): > 10 µM; IC50 (second compound 1 µM): > 10 µM; IC50 (second compound 3.16 µM): > 10 µM; IC50 (second compound 10 µM): > 10 µM; viability, T/C [1]: 110%; viability, T/C [2]: 124%; viability, T/C [3]: 127%; viability, T/C [4]: 87.1%; viability, T/C [5]: 117%; viability, T/C [6]: 70.4%; viability, T/C [7]: 119%; viability, T/C [8]: 121%; viability, T/C [9]: 96.4%; viability, T/C [10]: 85.2%; viability, T/C [11]: 92.1%; viability, T/C [12]: 68.4%; viability, T/C [13]: 102%; viability, T/C [14]: 102%; viability, T/C [15]: 89%; viability, T/C [16]: 111%; viability, T/C [17]: 89.5%; viability, T/C [18]: 64.6%; viability, T/C [19]: 114%; viability, T/C [20]: 116%; viability, T/C [21]: 99.9%; viability, T/C [22]: 96.5%; viability, T/C [23]: 121%; viability, T/C [24]: 76.2%; viability, T/C [25]: 102%; viability, T/C [26]: 128%; viability, T/C [27]: 105%; viability, T/C [28]: 115%; viability, T/C [29]: 108%; viability, T/C [30]: 79.3%; viability, T/C [31]: 121%; viability, T/C [32]: 140%; viability, T/C [33]: 130%; viability, T/C [34]: 114%; viability, T/C [35]: 109%; viability, T/C [36]: 93.4%

What does the source list for `O=C(NO)c1cnc(N2CCN(S(=O)(=O)c3ccc4ccccc4c3)CC2)nc1` + CN(C)c1ccc(Nc2c3ccc(NC(=O)CCN4CCCC4)cc3nc3cc(NC(=O)CCN4CCCC4)ccc23)cc1?
IC50 (second compound 0.0316 µM): 0.39 µM; IC50 (second compound 0.1 µM): 0.475 µM; IC50 (second compound 0.316 µM): 0.442 µM; IC50 (second compound 1 µM): 0.448 µM; IC50 (second compound 3.16 µM): 0.682 µM; IC50 (second compound 10 µM): 0.689 µM; viability, T/C [1]: 107%; viability, T/C [2]: 79.2%; viability, T/C [3]: 50%; viability, T/C [4]: 41.5%; viability, T/C [5]: 4.18%; viability, T/C [6]: 0.41%; viability, T/C [7]: 79.9%; viability, T/C [8]: 96.1%; viability, T/C [9]: 56.6%; viability, T/C [10]: 29.6%; viability, T/C [11]: 4.22%; viability, T/C [12]: 0.4%; viability, T/C [13]: 96.5%; viability, T/C [14]: 75%; viability, T/C [15]: 60.8%; viability, T/C [16]: 33.4%; viability, T/C [17]: 4.98%; viability, T/C [18]: 0.4%; viability, T/C [19]: 76.7%; viability, T/C [20]: 76.6%; viability, T/C [21]: 54.5%; viability, T/C [22]: 34.5%; viability, T/C [23]: 3.3%; viability, T/C [24]: 0.44%; viability, T/C [25]: 88.3%; viability, T/C [26]: 95.7%; viability, T/C [27]: 80.9%; viability, T/C [28]: 34.3%; viability, T/C [29]: 4.89%; viability, T/C [30]: 0.4%; viability, T/C [31]: 101%; viability, T/C [32]: 85.6%; viability, T/C [33]: 95.3%; viability, T/C [34]: 29%; viability, T/C [35]: 5.63%; viability, T/C [36]: 0.55%
